Laboratory results published in patent US11807852B2, “Compositions and methods for reactivating latent immunodeficiency virus” (The J. David Gladstone Institutes, a testamentary trust …, priority 2014, dated 2023).
Entries after “also recorded” stand apart in the source; their conditions may differ. Read-outs that look alike come from different tables or passages of the source.

Experiments:
[1] = system: J-Lat A72 cell line (LTR-GFP)
Experimental: J-Lat (clones A2 and A72) cell lines were cultured as described in Jordan et al., EMBO J. 2003 Apr. 15:22(8):1868-77. Human αCD3/αCD28 beads (Life Technologies) were used at a concentration of 1 bead/cell ratio. JQ1 (Sigma-Aldrich) was used at a concentration of 0.1-10 μM. Ingenol 3,20-dibenzoate (Sigma-Aldrich) was used at concentrations of 5-200 nM, and SAHA (Sigma-Aldrich) was used at concentrations of 110 nM, 330 nM, or 1 μM.
HEK293T cells were obtained from the American Type Culture Collection. J-Lat (clones A2, A72, and 5A8) cell lines were described (Chan et al., 2013; Jordan et al., 2003). HEK293T cells were cultured in DMEM supplemented with 10% FBS, 1% L-glutamine and 1% penicillin-streptomycin (Life Technologies). J-Lat cells were cultured in RPMI supplemented with 10% FBS, 1% L-glutamine and 1% penicillin-streptomycin (Life Technologies). […] TNFα (Sigma-Aldrich) was used at 0.5-10 ng/ml. Human αCD3/αCD28 Dynabeads (Invitrogen) were used at a 1 bead/cell ratio. JQ1 (Cayman Chemical) was used at 0.1-10 μM. Ingenol 3,20-dibenzoate (Santa Cruz Biotechnology) was used at 5-200 nM, and SAHA (Merck) was used at 110 nM, 330 nM, or 1 μM. Phorbol 12-myristate 13-acetate (PMA) (Sigma) was used at 10 nM and ionomycin (Sigma) was used at a concentration of 500 nM. UNC926 (Tocris Bioscience) was used at a concentration of 10 nM-100 μM. AZ505. AZ506, and AZ391 were used at a concentration of 10 nM-10 μM.
ShRNA-expressing lentiviral vectors were purchased from Sigma-Aldrich. The pLKO.1 vector containing a scrambled shRNA was used as control. […] J-Lat 5A8, A72 and A2 cells were spininfected with virus (1 ng of p24 per 10^6 cells) containing shRNAs against KMTs or nontargeting control shRNAs and were selected with puronycin (2 μg/ml: Sigma). After 7 days of selection, cells were treated with the indicated concentration of drugs. The percentage of GFP^+ cells was determined after 18 h using a MACSQuant VYB FACS analyzer (Miltenyi Biotech GmbH). Cell viability was monitored by forward-and-side scatter analysis. Analysis was conducted on 3×10,000 live cells per condition. Data were analyzed using FlowJo 9.5 (Tree Star).

L3MBTL1 = target: T1, L3MBTL1 (Homo sapiens, UniProt Q9Y468); details: cited from earlier work
T1 sequence (Q9Y468 1-840): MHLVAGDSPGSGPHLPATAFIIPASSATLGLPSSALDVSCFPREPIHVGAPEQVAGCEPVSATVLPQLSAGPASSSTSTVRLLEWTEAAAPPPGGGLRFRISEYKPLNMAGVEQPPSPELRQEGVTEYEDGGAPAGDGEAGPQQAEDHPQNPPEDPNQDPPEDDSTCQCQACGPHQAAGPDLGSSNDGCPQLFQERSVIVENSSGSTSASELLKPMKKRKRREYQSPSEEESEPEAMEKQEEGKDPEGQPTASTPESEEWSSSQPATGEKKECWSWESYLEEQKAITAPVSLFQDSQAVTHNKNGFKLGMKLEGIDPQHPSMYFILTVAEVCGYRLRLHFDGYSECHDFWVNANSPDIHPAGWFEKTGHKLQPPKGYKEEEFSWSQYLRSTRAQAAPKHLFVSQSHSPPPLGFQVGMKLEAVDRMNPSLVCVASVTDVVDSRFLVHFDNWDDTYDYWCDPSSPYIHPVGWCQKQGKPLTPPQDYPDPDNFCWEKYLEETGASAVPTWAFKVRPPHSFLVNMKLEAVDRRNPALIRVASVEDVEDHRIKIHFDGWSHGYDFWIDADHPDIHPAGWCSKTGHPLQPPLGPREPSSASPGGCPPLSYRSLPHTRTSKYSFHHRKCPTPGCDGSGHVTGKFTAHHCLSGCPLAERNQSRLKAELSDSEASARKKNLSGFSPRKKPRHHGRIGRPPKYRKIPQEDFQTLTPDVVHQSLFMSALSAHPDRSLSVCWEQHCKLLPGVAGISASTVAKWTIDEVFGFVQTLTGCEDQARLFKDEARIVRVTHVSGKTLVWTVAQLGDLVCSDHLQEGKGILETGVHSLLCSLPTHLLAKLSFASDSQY

J-Lat 5A8 cells = test: SMYD5 shRNA knockdown in J-Lat 5A8 cells (qPCR, GFP flow cytometry); assay type: cell-based; details: for SMYD5 knockdown efficiency by qPCR: J-Lat 5A8 cells; for reactivation of viral latency (GFP) after CD3/28 antibody stimulation: suboptimal, medium or saturating doses, 24 hours
Experimental: ShRNA-expressing lentiviral vectors were purchased from Sigma-Aldrich. The plasmids TRCN000155095 (Target sequence: […]) (SEQ ID NO:76) and TRCN0000156306 (Target sequence: […]) (SEQ ID NO:77) were used to deplete SMYD5. The pLKO. I vector containing a scrambled shRNA was used as control. […]; 272:263-7), and titered for p24 content. […] Data were analyzed using FlowJo 9.5 (Tree Star).
RNA was isolated using RNeasy Plus Mini Kit (Qiagen) and reverse-transcribed using SuperScript III Reverse Transcriptase (Invitrogen) as per the manufacturer's instructions. Quantitative RT-PCR was carried out using Maxima SYBR Green qPCR Master Mix (Thermo Scientific) on SDS 2.4 software (Applied Biosystems) in a total volume of 12 μL. Primer efficiencies were around 100%. Dissociation curve analysis was performed after the end of the PCR to confirm the presence of a single and specific product.
To confirm results from the shRNA screen, SMYD5 was individually knocked down in J-Lat 5A8 cells. Cells were transduced with lentiviral vectors expressing two different shRNAs targeting SMYD5 or a scrambled control shRNA, followed by puromycin treatment to select successfully transduced cells. The shRNA knockdown was confirmed using qPCR and failed for #1 and was ˜50% effective for #2 (FIG. 26A). Cells were then stimulated with suboptimal, medium, or saturating doses of CD3/28 antibodies or were left unstimulated for 24 hours, followed by flow cytometry of GFP. […] To test effects of SMYD5 on basal HIV-1 transcription we analyzed RNAs from nonactivated control and SMYD5 knockdown cells with primers specific for the viral LTR; mRNAs for SMYD5 and the NF-κB factor p65 were used as controls (FIG. 26D). SMYD5 knockdown reduced basal HIV-1 transcription by ˜50% mirroring the knockdown efficiency of shRNA #2 (FIG. 26D). In independent experiments to investigate the biological role of SMYD5 during HIV transcription, HeLa cells were transfected with an HIV LTR luciferase construct and expression vectors for Tat and SMYD5. Overexpression of SMYD5 marked activation of a co-transfected viral LTR-luciferase reporter construct was observed (FIGS. 28A and 28B). To identify the target for SMYD5 in HIV-1 infection, we performed in vitro methylation assays with recombinant SMYD5 on purified human histones, Tat (aa 1-72) [SEQ ID NO. 39], NF-κB, RelA, Sp1, and P-TEFb components cyclin T1 and CDK9. Reactions included 3H-SAM and were performed with or without recombinant SMYD5 enzyme. After gel electrophoresis, coomassie staining and autoradiography no methylation was detected for RelA, Sp1, cyclin T1 and CDK9 (FIG. 27). However, histones H3 and H1 were weakly and Tat strongly methylated by SMYD5 (FIG. 27). To map the site of methylation in Tat, we performed in vitro methylation reactions using non-radiolabeled SAM and subjected them to reversed-phase liquid chromatography electrospray tandem mass spectrometry (LC-MS/MS). This analysis identified a single site, trimethylation of K41, identified in two distinct peptides (not shown). No mono or dimethylation at Tat K41 was observed.

[2] = system: J-Lat cells (clone A2: LTR-Tat-IRES-GFP); assay type: cell-based; details: A2 J-Lat cells, single agent
Experimental: To test this hypothesis, J-Lat cells (clone A2: LTR-Tat-IRES-GFP) were treated with SMYD2 inhibitors. […] Both cell lines were co-treated with X2 and Ingenol 3,20-dibenzoate (a protein kinase C (PKC) activator), JQ1 (BET-bromodomain inhibitor), or the histone deacetylase (HDAC) inhibitor suberoylanilidehydroxamic acid (SAHA).

SMYD2 = SMYD2 (Homo sapiens, UniProt Q9NRG4); details: cited from earlier work
SMYD2, sequence (Q9NRG4 whole entry): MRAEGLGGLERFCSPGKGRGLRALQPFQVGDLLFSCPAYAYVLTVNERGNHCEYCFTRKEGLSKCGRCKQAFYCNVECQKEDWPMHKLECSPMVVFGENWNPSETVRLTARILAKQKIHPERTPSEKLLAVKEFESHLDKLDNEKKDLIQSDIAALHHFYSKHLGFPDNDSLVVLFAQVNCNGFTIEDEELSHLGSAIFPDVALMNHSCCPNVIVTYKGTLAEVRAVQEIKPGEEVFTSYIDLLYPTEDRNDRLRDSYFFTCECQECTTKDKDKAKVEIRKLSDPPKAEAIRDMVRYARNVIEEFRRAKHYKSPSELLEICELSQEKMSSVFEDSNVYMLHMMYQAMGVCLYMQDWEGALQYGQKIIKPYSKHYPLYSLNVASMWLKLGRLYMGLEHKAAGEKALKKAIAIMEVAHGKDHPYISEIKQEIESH

[3] = cited from earlier work

UNC926 [reference compound]
concentration at which activation is observed ([1]; A72, 10 nM-100 μM, without or with 0.1 ng/ml TNFα, 18 h): 100 µM
viability by forward-side scatter analysis ([1]; A72, up to 100 μM, 18 h): No effect on viability
basal transcriptional activity ([1]; A72 J-Lat cells): a doubling in basal transcriptional activity
Kd (L3MBTL1): 3.9 µM

shRNA #2: lentiviral shRNA targeting SMYD5 (SEQ ID NO:75) (CCGGCTGTGACACTCTGGAGTTGAACTCGAGTTCAACTCCAGAGTGTCACAGTTTTTTG)
SMYD5 knockdown efficiency by qPCR (J-Lat 5A8 cells): ~50%
reduction of basal HIV-1 transcription (viral LTR RNA, RT-qPCR) (J-Lat 5A8 cells; nonactivated cells): ~50%
reactivation of viral latency (GFP) after CD3/28 antibody stimulation (J-Lat 5A8 cells): suppressed reactivation of viral latency

O=C1COc2c(CCNCCN(C(=O)CCNCCc3ccc(Cl)c(Cl)c3)C3CCCCC3)ccc(O)c2N1 [AZ505, N-cyclohexyl-3-((3,4-dichlorophenethyl)amino)-N-(2-((2-(5-hydroxy-3-oxo-3,4-dihydro-2H-benzo[b][1,4]oxazin-8-yl)ethyl)amino)ethyl)propanamide bis(2,2,2-trifluoroacetate), reference compound]
activation of HIV transcription / reactivation of the HIV-LTR (GFP) [2]: failure of AZ505 to effectively activate HIV transcription
Kd compared with the p53 peptide (SMYD2): approximately sevenfold lower than the p53 peptide
cell permeability ([3]; bis(2,2,2-trifluoroacetate)): lack of cell permeability; also recorded: not cell-penetrable

shRNA #1: lentiviral shRNA targeting SMYD5 (SEQ ID NO:74) (CCGGGCTATGGGAATTACAACCCATCTCGAGATGGGTTGTAATTCCCATAGCTTTTTTG)
SMYD5 knockdown efficiency by qPCR (J-Lat 5A8 cells): failed
reactivation of viral latency (GFP) after CD3/28 antibody stimulation (J-Lat 5A8 cells): had no effect

O=C(NCCCN1CCCC1)c1cncc(-c2ccccc2N2CCN(CCc3c[nH]c4ccccc34)CC2)c1 [AZ506]
activation of GFP expression / reactivation of the HIV-LTR ([1]; A72 J-Lat cells, single agent): activated GFP expression at high concentrations
cell permeability [3]: cell-permeable
